Where “and” joins values, the source holds several entries; their conditions need not be identical. Equal values may be shown once. Toxic doses and inconclusive results are not listed. The calls were made as follows: active = survival T/C of 150% or more; inactive = T/C below 125% in these data.
Tested on: P388 leukemia ip, CD2F1 mice, survival T/C
Assay: NCI In Vivo Anticancer Drug Screen. Data for tumor model P388 Leukemia (intraperitoneal) in CD2F1 (CDF1) mice
Settings: endpoint: median survival time, higher = longer survival
Method in brief: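 Mice carrying the transplanted tumor received test compound or vehicle. Survival was recorded in each group, and the value is the treated-group measurement divided by that of the vehicle-treated control group.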

[1] = dose: 6.25 mg/kg/injection, schedule: Q01DX009 (ip), vehicle: saline with Tween-80
[2] = dose: 12.5 mg/kg/injection, schedule: Q01DX009 (ip), vehicle: saline with Tween-80
[3] = dose: 25.0 mg/kg/injection, schedule: Q01DX009 (ip), vehicle: saline with Tween-80
[4] = dose: 50.0 mg/kg/injection, schedule: Q01DX009 (ip), vehicle: saline with Tween-80
[5] = dose: 100.0 mg/kg/injection, schedule: Q01DX009 (ip), vehicle: saline with Tween-80
[6] = dose: 12.5 mg/kg/injection, schedule: Q01DX005 (ip), vehicle: Klucel (hydroxypropylcellulose) (HPC)
[7] = dose: 25.0 mg/kg/injection, schedule: Q01DX005 (ip), vehicle: Klucel (hydroxypropylcellulose) (HPC)
[8] = dose: 50.0 mg/kg/injection, schedule: Q01DX005 (ip), vehicle: Klucel (hydroxypropylcellulose) (HPC)
[9] = dose: 100.0 mg/kg/injection, schedule: Q01DX005 (ip), vehicle: Klucel (hydroxypropylcellulose) (HPC)
[10] = dose: 200.0 mg/kg/injection, schedule: Q01DX005 (ip), vehicle: Klucel (hydroxypropylcellulose) (HPC)
[11] = dose: 50.0 mg/kg/injection, schedule: Q01DX009 (ip), vehicle: Klucel (hydroxypropylcellulose) (HPC)
[12] = dose: 100.0 mg/kg/injection, schedule: Q01DX009 (ip), vehicle: Klucel (hydroxypropylcellulose) (HPC)
[13] = dose: 200.0 mg/kg/injection, schedule: Q01DX009 (ip), vehicle: Klucel (hydroxypropylcellulose) (HPC)
[14] = dose: 60.0 mg/kg/injection, schedule: Q01DX005 (ip), vehicle: saline with Tween-80
[15] = dose: 120.0 mg/kg/injection, schedule: Q01DX005 (ip), vehicle: saline with Tween-80
[16] = dose: 240.0 mg/kg/injection, schedule: Q01DX005 (ip), vehicle: saline with Tween-80
[17] = dose: 50.0 mg/kg/injection, schedule: Q01DX005 (ip), vehicle: saline with Tween-80
[18] = dose: 100.0 mg/kg/injection, schedule: Q01DX005 (ip), vehicle: saline with Tween-80
[19] = dose: 200.0 mg/kg/injection, schedule: Q01DX005 (ip), vehicle: saline with Tween-80
[20] = dose: 100.0 mg/kg/injection, schedule: Q04DX003 (ip), vehicle: saline
[21] = dose: 200.0 mg/kg/injection, schedule: Q04DX003 (ip), vehicle: saline
[22] = dose: 60.0 mg/kg/injection, schedule: Q01DX005 (ip), vehicle: saline

Measured: T/C

O=C(CCCN1CCC(C(=O)c2ccc(F)cc2)CC1)c1ccc(F)cc1
inactive: dose: 1.56 mg/kg/injection, schedule: Q01DX009 (ip), vehicle: saline 92 % of control | dose: 3.13 mg/kg/injection, schedule: Q01DX009 (ip), vehicle: saline 93 % of control | [1] 100 % of control | dose: 6.25 mg/kg/injection, schedule: Q01DX009 (ip), vehicle: saline 104 % of control | [2] 100 % of control | [3] 110 % of control | [4] 118 % of control

CC1(C)CC(=O)C=C(NC2CCCCC2)C1
inactive: [4] 91 % of control | [5] 100 % of control

Cc1ccc(S(=O)C2=CCCO2)cc1 (centres undefined)
inactive: [6] 100 % of control | [7] 102 % of control | [8] 101 % of control and 108 % of control | [9] 119 % of control | [10] 118 % of control

CSc1nccc(=O)n1-c1ccccc1
inactive: dose: 100.0 mg/kg/injection, schedule: Q04DX003 (ip), vehicle: Klucel (hydroxypropylcellulose) (HPC) 91 % of control | dose: 200.0 mg/kg/injection, schedule: Q04DX003 (ip), vehicle: Klucel (hydroxypropylcellulose) (HPC) 92 % of control

O=C1C(O)C(c2ccccc2)c2ccccc2N1c1ccccc1 (centres undefined)
inactive: dose: 100.0 mg/kg/injection, schedule: Q01DX001 (ip), vehicle: Klucel (hydroxypropylcellulose) (HPC) 95 % of control | dose: 200.0 mg/kg/injection, schedule: Q01DX001 (ip), vehicle: Klucel (hydroxypropylcellulose) (HPC) 96 % of control | dose: 400.0 mg/kg/injection, schedule: Q01DX001 (ip), vehicle: Klucel (hydroxypropylcellulose) (HPC) 89 % of control

Cc1ccc(-n2ncc3c(=O)n(-c4cccc(C)c4)c(=O)[nH]c32)cc1
inactive: [11] 99 % of control | [12] 97 % of control | [13] 96 % of control

O=C1c2cc([N+](=O)[O-])ccc2-c2c(N=Cc3ccc4c(c3)OCO4)cccc21
inactive: [14] 90 % of control | [15] 91 % of control | [16] 99 % of control

CC1=C(C)CN2CC(C#N)=C(N)C2C1 (centres undefined)
inactive: [17] 107 % of control | [18] 96 % of control | [19] 96 % of control

O=c1c2cc3c(cc2c2cccc4c2n1CC4)OCO3
inactive: dose: 25.0 mg/kg/injection, schedule: Q01DX009 (ip), vehicle: other 96 % of control | dose: 50.0 mg/kg/injection, schedule: Q01DX009 (ip), vehicle: other 100 % of control | dose: 100.0 mg/kg/injection, schedule: Q01DX009 (ip), vehicle: other 86 % of control | dose: 200.0 mg/kg/injection, schedule: Q01DX009 (ip), vehicle: other 89 % of control | dose: 400.0 mg/kg/injection, schedule: Q01DX009 (ip), vehicle: other 91 % of control

CCOC(=O)C1Nc2ccc(Br)cc2C(C(=O)OCC)N1c1ccc(Br)cc1 (centres undefined)
inactive: [11] 102 % of control | [12] 102 % of control | [13] 94 % of control

CN(C)C(=Nc1ccc(NC(=O)c2ccc(C(=O)Nc3ccc(N=C(Nc4ccccc4)N(C)C)cc3)cc2)cc1)Nc1ccccc1
inactive: dose: 6.25 mg/kg/injection, schedule: Q01DX005 (ip), vehicle: Klucel (hydroxypropylcellulose) (HPC) 101 % of control | [6] 101 % of control | [7] 100 % of control

C[N+]1=CN(S(=O)(=O)C2C=CC=CC=C2)CC1(C)C
inactive: [20] 100 % of control | [21] 107 % of control | dose: 400.0 mg/kg/injection, schedule: Q04DX003 (ip), vehicle: saline 97 % of control

CSc1nc(N)cc(C(F)(F)F)n1
inactive: [17] 88 % of control | [18] 99 % of control | [19] 97 % of control

Cc1ccccc1CN1CC2=C(CCN(Cc3ccccc3)C2=O)N2CCN=C12
inactive: [17] 96 % of control | [18] 96 % of control | [19] 100 % of control

CC(=O)OC1/C=C\CC/C=C\C1 (centres undefined)
inactive: [14] 99 % of control | [15] 102 % of control | [16] 103 % of control

OCCC1CC2CCCCN2O1 (centres undefined)
inactive: dose: 50.0 mg/kg/injection, schedule: Q04DX003 (ip), vehicle: saline 101 % of control | [20] 103 % of control | [21] 102 % of control

CCc1ccc[n+](-c2ccncc2CC)c1
inactive: dose: 15.0 mg/kg/injection, schedule: Q01DX005 (ip), vehicle: saline 96 % of control | dose: 30.0 mg/kg/injection, schedule: Q01DX005 (ip), vehicle: saline 100 % of control | [22] 106 % of control and 88 % of control

CCCCC1C(=O)N2C=C(c3ccccc3)c3ccccc3N2C1=O (centres undefined)
inactive: dose: 25.0 mg/kg/injection, schedule: Q01DX009 (ip), vehicle: Klucel (hydroxypropylcellulose) (HPC) 104 % of control | [11] 111 % of control | [12] 95 % of control | [13] 105 % of control | dose: 400.0 mg/kg/injection, schedule: Q01DX009 (ip), vehicle: Klucel (hydroxypropylcellulose) (HPC) 95 % of control

CCCCC(CCCCCC(CCCC)NCc1ccc2c(c1)OCO2)NCc1ccc2c(c1)OCO2 (centres undefined)
inactive: dose: 3.12 mg/kg/injection, schedule: Q01DX009 (ip), vehicle: Klucel (hydroxypropylcellulose) (HPC) 102 % of control | dose: 6.25 mg/kg/injection, schedule: Q01DX009 (ip), vehicle: Klucel (hydroxypropylcellulose) (HPC) 97 % of control | dose: 12.5 mg/kg/injection, schedule: Q01DX009 (ip), vehicle: Klucel (hydroxypropylcellulose) (HPC) 100 % of control and 112 % of control

O=C(CCl)N1c2ccccc2Sc2c1ccc1ccccc21
inactive: dose: 3.12 mg/kg/injection, schedule: Q01DX009 (ip), vehicle: saline with Tween-80 103 % of control | [1] 104 % of control | dose: 6.25 mg/kg/injection, schedule: Q01DX009 (ip), vehicle: suspension in saline 100 % of control | [2] 120 % of control | dose: 12.5 mg/kg/injection, schedule: Q01DX009 (ip), vehicle: suspension in saline 102 % of control and 122 % of control | [3] 116 % of control | dose: 25.0 mg/kg/injection, schedule: Q01DX009 (ip), vehicle: suspension in saline 103 % of control and 118 % of control | [4] 116 % of control | dose: 50.0 mg/kg/injection, schedule: Q01DX009 (ip), vehicle: suspension in saline 103 % of control | [5] 110 % of control | dose: 100.0 mg/kg/injection, schedule: Q01DX009 (ip), vehicle: suspension in saline 102 % of control and 123 % of control | dose: 200.0 mg/kg/injection, schedule: Q01DX009 (ip), vehicle: suspension in saline 108 % of control

c1ccc2c(c1)oc1cc3c(cc12)n1nnnc1c1cccn31
inactive: dose: 25.0 mg/kg/injection, schedule: Q01DX005 (ip), vehicle: saline with Tween-80 92 % of control | [17] 97 % of control | [18] 100 % of control | [19] 100 % of control

CC(=NCCN=C(C)c1ccc(Br)cc1)c1ccc(Br)cc1
inactive: [4] 91 % of control | [5] 92 % of control | dose: 200.0 mg/kg/injection, schedule: Q01DX009 (ip), vehicle: saline with Tween-80 91 % of control

O=P(c1ccccc1)(c1ccccc1)c1ccccc1OCCOCCOc1ccccc1P(=O)(c1ccccc1)c1ccccc1
inactive: [8] 100 % of control | [9] 91 % of control | [10] 99 % of control

CC1(C)C[C@H](OC2CCCCO2)[C@H]2O[C@@]2(C)C1 (some centres undefined)
inactive: dose: 100.0 mg/kg/injection, schedule: Q04DX002 (ip), vehicle: saline 103 % of control | dose: 200.0 mg/kg/injection, schedule: Q04DX002 (ip), vehicle: saline 102 % of control | dose: 400.0 mg/kg/injection, schedule: Q04DX002 (ip), vehicle: saline 96 % of control

CS(=O)(=O)CC(=N\N)/C(CS(C)(=O)=O)=N/N
inactive: [22] 100 % of control | dose: 120.0 mg/kg/injection, schedule: Q01DX005 (ip), vehicle: saline 100 % of control | dose: 240.0 mg/kg/injection, schedule: Q01DX005 (ip), vehicle: saline 108 % of control

COc1cccnc1/C=N/NC(N)=S
inactive: dose: 3.13 mg/kg/injection, schedule: Q01DX009 (ip), vehicle: saline with Tween-80 124 % of control

Source: PubChem BioAssay AID330 (DTP/NCI, 2004)
